Experimental data published in PubChem BioAssay AID256 (DTP/NCI, 2004).
“And” between values parts separate entries of the source, which are not always exact repeats. Equal entries are not always repeated. Toxic doses and inconclusive results are not listed.

System: CD2F1 mice, L1210 leukemia ip, survival T/C
Assay: NCI In Vivo Anticancer Drug Screen. Data for tumor model L1210 Leukemia (intraperitoneal) in CD2F1 (CDF1) mice
Settings: higher = longer survival
In short: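 Mice carrying a transplanted tumor received test compound or vehicle alone. The value is the measurement in the treated group divided by that in the vehicle-treated control group.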

[1] = endpoint: mean survival time, dose: 100.0 mg/kg/injection, schedule: Q01DX009 (ip), vehicle: saline with Tween-80
[2] = endpoint: mean survival time, dose: 200.0 mg/kg/injection, schedule: Q01DX009 (ip), vehicle: saline with Tween-80

## CN(C)CCN1C(=O)c2cccc3cc(N)cc(c23)C1=O
endpoint: mean survival time, dose: 1.0 mg/kg/injection, schedule: Q01DX009 (ip), vehicle: saline with Tween-80
  T/C: 92 % of control and 104 % of control
endpoint: mean survival time, dose: 2.0 mg/kg/injection, schedule: Q01DX009 (ip), vehicle: saline with Tween-80
  T/C: 101 % of control and 102 % of control
endpoint: mean survival time, dose: 4.0 mg/kg/injection, schedule: Q01DX009 (ip), vehicle: saline with Tween-80
  T/C: 107 % of control and 108 % of control
endpoint: mean survival time, dose: 16.0 mg/kg/injection, schedule: Q01DX009 (ip), vehicle: saline with Tween-80
  T/C: 175 % of control and 197 % of control
endpoint: mean survival time, dose: 32.0 mg/kg/injection, schedule: Q01DX009 (ip), vehicle: saline with Tween-80
  T/C: 89 % of control and 96 % of control
endpoint: median survival time, dose: 1.0 mg/kg/injection, schedule: Q01DX009 (ip), vehicle: acid diluted with saline
  T/C: 99 % of control
endpoint: median survival time, dose: 1.2 mg/kg/injection, schedule: Q03HX024 (ip), vehicle: water
  T/C: 113 % of control
endpoint: median survival time, dose: 1.8 mg/kg/injection, schedule: Q03HX024 (ip), vehicle: water
  T/C: 117 % of control
endpoint: median survival time, dose: 2.0 mg/kg/injection, schedule: Q01DX009 (ip), vehicle: acid diluted with saline
  T/C: 97 % of control and 107 % of control
endpoint: median survival time, dose: 2.0 mg/kg/injection, schedule: Q01DX009 (ip), vehicle: saline with Tween-80
  T/C: 105 % of control
endpoint: median survival time, dose: 2.7 mg/kg/injection, schedule: Q03HX024 (ip), vehicle: water
  T/C: 115 % of control
endpoint: median survival time, dose: 2.9 mg/kg/injection, schedule: Q01DX005 (iv), vehicle: water
  T/C: 108 % of control
endpoint: median survival time, dose: 3.2 mg/kg/injection, schedule: Q01DX009 (ip), vehicle: saline
  T/C: 118 % of control
endpoint: median survival time, dose: 3.2 mg/kg/injection, schedule: Q01DX009 (ip), vehicle: water
  T/C: 105 % of control
endpoint: median survival time, dose: 3.65 mg/kg/injection, schedule: Q03HX008 (ip), vehicle: water
  T/C: 118 % of control
endpoint: median survival time, dose: 4.0 mg/kg/injection, schedule: Q01DX009 (ip), vehicle: acid diluted with saline
  T/C: 113 % of control and 99 % of control
endpoint: median survival time, dose: 4.0 mg/kg/injection, schedule: Q01DX009 (ip), vehicle: saline with Tween-80
  T/C: 116 % of control
endpoint: median survival time, dose: 4.35 mg/kg/injection, schedule: Q01DX005 (iv), vehicle: water
  T/C: 105 % of control
endpoint: median survival time, dose: 4.7 mg/kg/injection, schedule: Q01DX009 (ip), vehicle: water
  T/C: 124 % of control
endpoint: median survival time, dose: 5.0 mg/kg/injection, schedule: Q01DX009 (ip), vehicle: acid diluted with saline
  T/C: 113 % of control
endpoint: median survival time, dose: 5.44 mg/kg/injection, schedule: Q03HX008 (ip), vehicle: water
  T/C: 120 % of control
endpoint: median survival time, dose: 5.76 mg/kg/injection, schedule: Q01DX005 (ip), vehicle: water
  T/C: 117 % of control
endpoint: median survival time, dose: 6.03 mg/kg/injection, schedule: Q03HX024 (ip), vehicle: water
  T/C: 154 % of control
endpoint: median survival time, dose: 6.5 mg/kg/injection, schedule: Q01DX005 (iv), vehicle: saline with Tween-80
  T/C: 105 % of control
endpoint: median survival time, dose: 6.5 mg/kg/injection, schedule: Q01DX005 (iv), vehicle: water
  T/C: 113 % of control
endpoint: median survival time, dose: 7.0 mg/kg/injection, schedule: Q01DX009 (ip), vehicle: acid diluted with saline
  T/C: 114 % of control
endpoint: median survival time, dose: 7.1 mg/kg/injection, schedule: Q01DX009 (ip), vehicle: saline with Tween-80
  T/C: 123 % of control
endpoint: median survival time, dose: 8.0 mg/kg/injection, schedule: Q01DX009 (ip), vehicle: acid diluted with saline
  T/C: 118 % of control
endpoint: median survival time, dose: 8.46 mg/kg/injection, schedule: Q01DX005 (ip), vehicle: saline with Tween-80
  T/C: 114 % of control
endpoint: median survival time, dose: 8.46 mg/kg/injection, schedule: Q01DX005 (ip), vehicle: water
  T/C: 120 % of control
endpoint: median survival time, dose: 9.0 mg/kg/injection, schedule: Q03HX024 (ip), vehicle: water
  T/C: 209 % of control
endpoint: median survival time, dose: 9.7 mg/kg/injection, schedule: Q01DX005 (iv), vehicle: saline with Tween-80
  T/C: 114 % of control
endpoint: median survival time, dose: 9.7 mg/kg/injection, schedule: Q01DX005 (iv), vehicle: water
  T/C: 120 % of control
endpoint: median survival time, dose: 9.7 mg/kg/injection, schedule: Q04DX003 (ip), vehicle: water
  T/C: 120 % of control
endpoint: median survival time, dose: 10.0 mg/kg/injection, schedule: Q01DX009 (ip), vehicle: acid diluted with saline
  T/C: 117 % of control
endpoint: median survival time, dose: 10.7 mg/kg/injection, schedule: Q01DX009 (ip), vehicle: saline
  T/C: 165 % of control
endpoint: median survival time, dose: 11.0 mg/kg/injection, schedule: Q01DX009 (ip), vehicle: saline with Tween-80
  T/C: 150 % of control and 167 % of control
endpoint: median survival time, dose: 12.1 mg/kg/injection, schedule: Q03HX008 (ip), vehicle: water
  T/C: 174 % of control
endpoint: median survival time, dose: 13.4 mg/kg/injection, schedule: Q03HX024 (ip), vehicle: water
  T/C: 103 % of control
endpoint: median survival time, dose: 14.5 mg/kg/injection, schedule: Q04DX003 (ip), vehicle: water
  T/C: 120 % of control
endpoint: median survival time, dose: 14.6 mg/kg/injection, schedule: Q01DX001 (iv), vehicle: water
  T/C: 112 % of control
endpoint: median survival time, dose: 16.0 mg/kg/injection, schedule: Q01DX009 (ip), vehicle: acid diluted with saline
  T/C: 175 % of control and 217 % of control and 112 % of control
endpoint: median survival time, dose: 16.0 mg/kg/injection, schedule: Q01DX009 (ip), vehicle: saline
  T/C: 206 % of control
endpoint: median survival time, dose: 16.0 mg/kg/injection, schedule: Q01DX009 (ip), vehicle: water
  T/C: 187 % of control
endpoint: median survival time, dose: 19.3 mg/kg/injection, schedule: Q01DX005 (ip), vehicle: saline with Tween-80
  T/C: 158 % of control
endpoint: median survival time, dose: 19.3 mg/kg/injection, schedule: Q01DX005 (ip), vehicle: water
  T/C: 183 % of control
endpoint: median survival time, dose: 21.6 mg/kg/injection, schedule: Q01DX005 (iv), vehicle: saline with Tween-80
  T/C: 162 % of control
endpoint: median survival time, dose: 21.6 mg/kg/injection, schedule: Q01DX005 (iv), vehicle: water
  T/C: 182 % of control
endpoint: median survival time, dose: 21.8 mg/kg/injection, schedule: Q01DX001 (iv), vehicle: water
  T/C: 113 % of control
endpoint: median survival time, dose: 24.0 mg/kg/injection, schedule: Q01DX009 (ip), vehicle: saline with Tween-80
  T/C: 158 % of control and 163 % of control
endpoint: median survival time, dose: 24.0 mg/kg/injection, schedule: Q01DX009 (ip), vehicle: saline
  T/C: 118 % of control
endpoint: median survival time, dose: 24.0 mg/kg/injection, schedule: Q01DX009 (ip), vehicle: water
  T/C: 117 % of control
endpoint: median survival time, dose: 28.8 mg/kg/injection, schedule: Q01DX001 (ip), vehicle: water
  T/C: 120 % of control
endpoint: median survival time, dose: 28.8 mg/kg/injection, schedule: Q01DX005 (ip), vehicle: saline with Tween-80
  T/C: 187 % of control
endpoint: median survival time, dose: 28.8 mg/kg/injection, schedule: Q01DX005 (ip), vehicle: water
  T/C: 195 % of control
endpoint: median survival time, dose: 28.9 mg/kg/injection, schedule: Q01DX009 (oral), vehicle: water
  T/C: 174 % of control
endpoint: median survival time, dose: 32.0 mg/kg/injection, schedule: Q01DX009 (ip), vehicle: acid diluted with saline
  T/C: 95 % of control
endpoint: median survival time, dose: 32.0 mg/kg/injection, schedule: Q01DX009 (ip), vehicle: saline with Tween-80
  T/C: 90 % of control and 108 % of control
endpoint: median survival time, dose: 32.2 mg/kg/injection, schedule: Q01DX005 (iv), vehicle: saline with Tween-80
  T/C: 96 % of control
endpoint: median survival time, dose: 32.3 mg/kg/injection, schedule: Q04DX003 (ip), vehicle: water
  T/C: 196 % of control
endpoint: median survival time, dose: 36.0 mg/kg/injection, schedule: Q01DX009 (ip), vehicle: saline
  T/C: 93 % of control
endpoint: median survival time, dose: 43.1 mg/kg/injection, schedule: Q01DX009 (oral), vehicle: water
  T/C: 108 % of control
endpoint: median survival time, dose: 43.2 mg/kg/injection, schedule: Q01DX005 (ip), vehicle: saline with Tween-80
  T/C: 95 % of control
endpoint: median survival time, dose: 48.3 mg/kg/injection, schedule: Q04DX003 (ip), vehicle: water
  T/C: 244 % of control
endpoint: median survival time, dose: 72.0 mg/kg/injection, schedule: Q04DX003 (ip), vehicle: water
  T/C: 108 % of control

## CC1CCC(C)(C)CC1(C)c1cc(CN(C)C)c(O)c(CN(C)C)c1 (stereo unspecified)
endpoint: mean survival time, dose: 12.5 mg/kg/injection, schedule: Q01DX009 (ip), vehicle: acetone
  T/C: 95 % of control
endpoint: mean survival time, dose: 25.0 mg/kg/injection, schedule: Q01DX009 (ip), vehicle: acetone
  T/C: 98 % of control
endpoint: mean survival time, dose: 50.0 mg/kg/injection, schedule: Q01DX009 (ip), vehicle: acetone
  T/C: 98 % of control

## NNc1nc(=O)[nH]nc1SCc1ccccc1
endpoint: mean survival time, dose: 75.0 mg/kg/injection, schedule: Q01DX001 (ip), vehicle: saline
  T/C: 96 % of control
endpoint: mean survival time, dose: 150.0 mg/kg/injection, schedule: Q01DX001 (ip), vehicle: saline
  T/C: 88 % of control

## O=C(O)c1cc(-c2ccc(Cl)cc2)nc2c(Cl)cc(Cl)cc12
endpoint: mean survival time, dose: 100.0 mg/kg/injection, schedule: Q01DX001 (ip), vehicle: saline
  T/C: 101 % of control
endpoint: mean survival time, dose: 200.0 mg/kg/injection, schedule: Q01DX001 (ip), vehicle: saline
  T/C: 97 % of control
endpoint: mean survival time, dose: 400.0 mg/kg/injection, schedule: Q01DX001 (ip), vehicle: saline
  T/C: 100 % of control

## COC(=O)/C=C/c1ccc([N+](=O)[O-])cc1
[1]
  T/C: 100 % of control
[2]
  T/C: 100 % of control
endpoint: mean survival time, dose: 400.0 mg/kg/injection, schedule: Q01DX009 (ip), vehicle: saline with Tween-80
  T/C: 105 % of control

## CCCOC(=O)NCCBr
endpoint: mean survival time, dose: 50.0 mg/kg/injection, schedule: Q01DX009 (ip), vehicle: saline with Tween-80
  T/C: 101 % of control
[1]
  T/C: 96 % of control
[2]
  T/C: 93 % of control

## O=NN(CCCl)C(=O)Nc1ccc(Br)cn1
endpoint: mean survival time, dose: 20.0 mg/kg/injection, schedule: Q01DX001 (ip), vehicle: carboxymethylcellulose (CMC)
  T/C: 115 % of control

## O=S1CCCO1 (stereo unspecified)
endpoint: mean survival time, dose: 18.8 mg/kg/injection, schedule: Q04DX003 (ip), vehicle: saline
  T/C: 101 % of control
